# Patent publication US7754866B2 (Arena Pharmaceuticals, Inc., priority 1997, dated 2010)
# Where “and” joins values, the source holds several entries; their conditions need not be identical. Equal values may be shown once. Read-outs that look alike come from different tables or passages of the source.
# Assays:
# [1] = target: T1, wild type human 5HT2A receptor (Homo sapiens, UniProt P28223); test: Competitive binding assay, [3H]LSD, WT 5HT2A; conditions: for difference in selectivity preference (IC50 values) for the 5HT2A receptor compared with the 5HT2C receptor: 5HT2A versus 5HT2C
# T1 construct: expressed in transfected cells; host or cells: COS-7 cells, pCMV vector
# [2] = target: T2, human mutated 5HT2A receptor, AP-3 (Homo sapiens, UniProt P28223, T25N); test: Inositol phosphate accumulation assay, AP-3; format: cell-based; conditions: for remaining activity at 10 µM: read-out: IP3 % of Control;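 on all read-outs here: transfected 293 cells prelabeled with 3H-inositol, exposed to compound 120 min at 37 °C with LiCl and pargyline, inositol trisphosphates isolated by anion exchange and counted by scintillation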
# T2 construct: Inositol Phosphate Accumulation AP-3 IC50 Value (nM); other: several concentrations; IP3 % of Control; other: one concentration of 10 μM, triplicate; control without test compound
# [3] = competitive binding using LSD, read-out: WT 5HT2A LSD IC50
# [4] = several concentrations, read-out: IP3 AP-3 IC50
# [5] = one concentration of 10 μM, triplicate, control without test compound
# T2 sequence (P28223 whole entry T25N, looked up): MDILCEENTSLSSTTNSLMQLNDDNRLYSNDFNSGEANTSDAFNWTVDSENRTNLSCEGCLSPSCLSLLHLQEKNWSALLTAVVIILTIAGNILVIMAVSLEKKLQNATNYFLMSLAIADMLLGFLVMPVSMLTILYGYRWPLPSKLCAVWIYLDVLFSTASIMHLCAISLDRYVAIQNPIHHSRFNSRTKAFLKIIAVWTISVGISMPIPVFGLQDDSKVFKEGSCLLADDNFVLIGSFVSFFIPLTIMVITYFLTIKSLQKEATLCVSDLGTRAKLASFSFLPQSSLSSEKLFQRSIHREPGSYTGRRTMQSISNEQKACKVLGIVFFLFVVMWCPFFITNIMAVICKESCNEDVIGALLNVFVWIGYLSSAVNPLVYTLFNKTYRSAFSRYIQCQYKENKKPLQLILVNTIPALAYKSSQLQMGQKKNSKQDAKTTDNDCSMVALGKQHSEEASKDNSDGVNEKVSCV
# T1 sequence (P28223 whole entry T25N/H452Y): as the sequence (P28223 whole entry T25N, looked up) above, with H452Y counted along it
smiles,measurement,setting,value
"Cn1cc(Br)c(-c2cccc(NC(=O)Nc3ccc(OC(F)(F)F)cc3)c2)n1 [Compound 103487, N-[3-(4-bromo-1-methylpyrazol-3-yl)phenyl][{(4-trifluoromethoxy)phenyl}amino]carboxamide]",IC50,"[1]; 1 nM [3H]LSD, COS7 membranes, read-out: Competitive Binding WT 5HT2A ([3H]LSD) IC50 Value",46 nM
same,IC50,[2]; read-out: Inositol Phosphate Accumulation AP-3 IC50 Value,52 nM and 90 nM
"CSc1ccc(NC(=O)Nc2cccc(-c3nn(C)cc3Br)c2)cc1 [Compound 116079, N-[3-(4-bromo-1-methylpyrazol-3-yl)phenyl][(4-methylthiophenyl)amino]carboxamide]",IC50,[1]; [3],4 nM
same,remaining activity at 10 µM,[2],16%
same,IC50,[2]; [4],17 nM
"Cn1cc(Br)c(-c2cccc(NC(=O)Nc3ccc(Cl)cc3)c2)n1 [Compound 116081, N-[3-(4-bromo-1-methylpyrazol-3-yl)phenyl][(4-chlorophenyl)amino]carboxamide]",difference in selectivity preference (IC50 values) for the 5HT2A receptor compared with the 5HT2C receptor,[1],100 fold
same,IC50,[1]; [3],11 nM
same,remaining activity at 10 µM,[2],10%
same,IC50,[2]; [4],3.2 nM
"Cn1cc(Br)c(-c2cccc(NC(=O)Nc3ccc(F)cc3)c2)n1 [Compound 116082, {[3-(4-bromo-1-methylpyrazol-3-yl)phenyl]-amino}-N-(4-fluorophenyl)carboxamide]",difference in selectivity preference (IC50 values) for the 5HT2A receptor compared with the 5HT2C receptor,[1],100 fold
same,IC50,[1]; [3],7 nM
same,remaining activity at 10 µM,[2],11%
"Cn1cc(Br)c(-c2cccc(NC(=O)Nc3ccccc3OC(F)(F)F)c2)n1 [Compound 116087, {[3-(4-bromo-1-methylpyrazol-3-yl)phenyl]-amino}-N-[2-(trifluoromethoxy)phenyl]carboxamide]",IC50,[1]; [3],200 nM
same,remaining activity at 10 µM,[2]; [5],11%
"Cn1cc(Br)c(-c2cccc(NC(=O)Nc3ccccc3[N+](=O)[O-])c2)n1 [Compound 116089, {[3-(4-bromo-1-methylpyrazol-3-yl)phenyl]-amino}-N-(2-nitrophenyl)carboxamide]",IC50,[1]; [3],238 nM
same,remaining activity at 10 µM,[2]; [5],27%
"COc1ccc(NC(=O)Nc2cccc(-c3nn(C)cc3Br)c2)cc1 [Compound 116091, {[3-(4-bromo-1-methylpyrazol-3-yl)phenyl]-amino}-N-(4-methoxyphenyl)carboxamide]",IC50,[1]; [3],19 nM
same,remaining activity at 10 µM,[2],12%
"Cc1ccccc1NC(=O)Nc1cccc(-c2nn(C)cc2Br)c1 [Compound 116092, {[3-(4-bromo-1-methylpyrazol-3-yl)phenyl]amino}-N-(2-methylphenyl)carboxamide]",IC50,[1]; [3],131 nM
same,remaining activity at 10 µM,[2]; [5],32%
"Cn1cc(Br)c(-c2cccc(NC(=O)Nc3ccc(C(F)(F)F)cc3)c2)n1 [Compound 116097, {[3-(4-bromo-1-methylpyrazol-3-yl)phenyl]-amino}-N-[4-(trifluoromethyl)phenyl]carboxamide]",IC50,[1]; [3],65 nM
same,remaining activity at 10 µM,[2],11%
"Cn1cc(Br)c(-c2cccc(NC(=O)Nc3cccc(Cl)c3)c2)n1 [Compound 116105, {[3-(4-bromo-1-methylpyrazol-3-yl)phenyl]-amino}-N-(3-chlorophenyl)carboxamide]",IC50,[1]; [3],39 nM
same,remaining activity at 10 µM,[2],11%
"Cn1cc(Br)c(-c2cccc(NC(=O)Nc3ccccc3Cl)c2)n1 [Compound 116108, {[3-(4-bromo-1-methylpyrazol-3-yl)phenyl]-amino}-N-[2-chlorophenyl)carboxamide]",IC50,[1]; [3],249 nM
same,remaining activity at 10 µM,[2]; [5],6%
"CC(C)c1ccc(NC(=O)Nc2cccc(-c3nn(C)cc3Br)c2)cc1 [Compound 116110, {[3-(4-bromo-1-methylpyrazol-3-yl)phenyl]amino}-N-[4-(methylethyl)phenyl]carboxamide]",IC50,[1]; [3],338 nM
same,IP3 % of Control,[2]; [5],7%
"COc1cccc(NC(=O)Nc2cccc(-c3nn(C)cc3Br)c2)c1 [Compound 116111, {[3-(4-bromo-1-methylpyrazol-3-yl)phenyl]-amino}-N-(3-methoxyphenyl)carboxamide]",IC50,[1]; [3],106 nM
same,remaining activity at 10 µM,[2]; [5],7%
"Cc1cccc(NC(=O)Nc2cccc(-c3nn(C)cc3Br)c2)c1 [Compound 116112, [{3-(4-bromo-1-methylpyrazol-3-yl)phenyl}-amino]-N-(3-methylphenyl)carboxamide]",IC50,[1]; [3],57 nM
same,remaining activity at 10 µM,[2],14%
"CN(C(=O)Nc1cccc(-c2nn(C)cc2Br)c1)c1ccc(OC(F)(F)F)cc1 [Compound 116113, [{3-(4-bromo-1-methylpyrazol-3-yl)phenyl}-amino]-N-methyl-N-[4-(trifluoromethoxy)phenyl]carboxamide]",IC50,[1]; [3],2 nM
same,IC50,[2]; [4],193 nM
"Cn1cc(Br)c(-c2cccc(NC(=O)Nc3ccc(C(C)(C)C)cc3)c2)n1 [Compound 116119, N-[4-(tert-butyl)phenyl]{[3-(4-bromo-1-methylpyrazol-3-yl)phenyl]amino}carboxamide]",IC50,[1]; [3],476 nM
same,remaining activity at 10 µM,[2]; [5],17%
"CN(C)c1ccc(NC(=O)Nc2cccc(-c3nn(C)cc3Br)c2)cc1 [Compound 116122, N-[4-(dimethylamino)phenyl]{[3-(4-bromo-1-methylpyrazol-3-yl)phenyl]amino}carboxamide]",IC50,[1]; [3],309 nM
same,remaining activity at 10 µM,[2]; [5],9%
"Cn1cc(Br)c(-c2cccc(NC(=O)Cc3ccc(OC(F)(F)F)cc3)c2)n1 [Compound 116137, N-[3-(4-bromo-1-methylpyrazol-3-yl)phenyl]-2-[4-(trifluoromethoxy)-phenyl]acetamide]",IC50,[1]; [3],106 nM
"Cc1c(Cl)cc(NC(=O)Nc2cccc(-c3nn(C)cc3Br)c2)cc1Cl [Compound 116138, N-(3,5-dichloro-4-methylphenyl){[3-(4-bromo-1-methylpyrazol-3-yl)phenyl]amino}carboxamide]",IC50,[1]; [3],122 nM
same,remaining activity at 10 µM,[2]; [5],23%
"Cn1cc(Br)c(-c2cccc(NC(=O)Nc3ccc(SC(F)(F)F)cc3)c2)n1 [Compound 116139, {[3-(4-bromo-1-methylpyrazol-3-yl)phenyl]-amino}-N-[4-(trifluoromethylthio)phenyl]carboxamide]",IC50,[1]; [3],56 nM
same,remaining activity at 10 µM,[2],12%
"Cn1cc(Br)c(-c2cccc(NC(=O)NC3CCCCC3)c2)n1 [Compound 116141, N-[3-(4-bromo-1-methylpyrazol-3-yl)phenyl]-[cyclohexylamino]carboxamide]",IC50,[1]; [3],81 nM
same,IC50,[2]; [4],114 nM
"Cn1cc(Br)c(-c2cccc(NC(=O)NCc3ccccc3)c2)n1 [Compound 116143, N-[3-(4-bromo-1-methylpyrazol-3-yl)phenyl]-[phenylmethylamino]carboxamide]",IC50,[1]; [3],47 nM
same,IC50,[2]; [4],120 nM
"Cn1cc(Br)c(-c2cccc(NC(=O)Nc3ccccc3F)c2)n1 [Compound 116144, {[3-(4-bromo-1-methylpyrazol-3-yl)phenyl]-amino}-N-(2-fluorophenyl)carboxamide]",IC50,[1]; [3],37 nM
same,remaining activity at 10 µM,[2],12%
"Cn1cc(Br)c(-c2cccc(NC(=O)Nc3ccccc3C(N)=O)c2)n1 [Compound 116145, 2-({[3-(4-bromo-1-methylpyrazol-3-yl)phenyl]-amino}carbonylamino)benzamide]",IC50,[1]; [3],7470 nM
same,remaining activity at 10 µM,[2]; [5],31%
"Cn1cc(Br)c(-c2cccc(NC(=O)Nc3ccc(C#N)cc3)c2)n1 [Compound 116147, {[3-(4-bromo-1-methylpyrazol-3-yl)phenyl]-amino}-N-(4-cyanophenyl)carboxamide]",IC50,[1]; [3],2 nM
same,remaining activity at 10 µM,[2],12%
"Cn1cc(Br)c(-c2cccc(NC(=O)Nc3ccccc3C#N)c2)n1 [Compound 116148, {[3-(4-bromo-1-methylpyrazol-3-yl)phenyl]-amino}-N-(2-cyanophenyl)carboxamide]",IC50,[1]; [3],348 nM
same,remaining activity at 10 µM,[2]; [5],30%
"Cn1cc(Br)c(-c2cccc(NC(=O)Cc3cccc(F)c3)c2)n1 [Compound 116174, N-[3-(4-bromo-1-methylpyrazol-3-yl)phenyl]-2-(3-fluorophenyl)acetamide]",IC50,[1]; [3],318 nM
same,IC50,[2]; [4],153 nM
"COc1cccc(CC(=O)Nc2cccc(-c3nn(C)cc3Br)c2)c1 [Compound 116175, N-[3-(4-bromo-1-methylpyrazol-3-yl)phenyl]-2-(3-methoxyphenyl)acetamide]",IC50,[1]; [3],625 nM
same,IC50,[2]; [4],108 nM
"Cn1cc(Br)c(-c2cccc(NC(=O)Cc3ccccc3F)c2)n1 [Compound 116176, N-[3-(4-bromo-1-methylpyrazol-3-yl)phenyl]-2-(2-fluorophenyl)acetamide]",IC50,[1]; [3],662 nM
same,IC50,[2]; [4],129 nM
"Cn1cc(Br)c(-c2cccc(NC(=O)Cc3ccc([N+](=O)[O-])cc3)c2)n1 [Compound 116177, N-[3-(4-bromo-1-methylpyrazol-3-yl)phenyl]-2-(4-nitrophenyl)acetamide]",IC50,[1]; [3],108 nM
same,IC50,[2]; [4],61 nM
"COc1ccccc1CC(=O)Nc1cccc(-c2nn(C)cc2Br)c1 [Compound 116178, N-[3-(4-bromo-1-methylpyrazol-3-yl)phenyl]-2-(2-methoxyphenyl)acetamide]",IC50,[1]; [3],2300 nM
same,IC50,[2]; [4],165 nM
"COc1ccc(CNC(=O)Nc2cccc(-c3nn(C)cc3Br)c2)cc1OC [Compound 116183, N-[3-(4-bromo-1-methylpyrazol-3-yl)phenyl]-[{(3,4-dimethoxyphenyl)methyl}amino-]carboxamide]",IC50,[1]; [3],1010 nM
"COc1cc(CNC(=O)Nc2cccc(-c3nn(C)cc3Br)c2)cc(OC)c1OC [Compound 116184, N-[3-(4-bromo-1-methylpyrazol-3-yl)phenyl]-[{(3,4,5-trimethoxyphenyl)methyl}amino]-carboxamide]",IC50,[1]; [3],2960 nM
"Cc1ccccc1CNC(=O)Nc1cccc(-c2nn(C)cc2Br)c1 [Compound 116185, N-[3-(4-bromo-1-methylpyrazol-3-yl)phenyl][{(2-methylphenyl)methyl}amino]carboxamide]",IC50,[1]; [3],769 nM
"COc1ccc(CNC(=O)Nc2cccc(-c3nn(C)cc3Br)c2)cc1 [Compound 116189, N-[3-(4-bromo-1-methylpyrazol-3-yl)phenyl][{(4-methoxyphenyl)methyl}amino]carboxamide]",IC50,[1]; [3],102 nM
